From PubChem BioAssay AID1361 (SRMLSC, 2008)
pIC50: −log10 of the molar value. The source made the active and inactive calls. No rule for the calls is given here.

Test: blockers of mitochondrial fusion, WT vs mutant – cell-based, chemical genetic, wild-type and mutant, confirmation (AID 1361)
Details: Cell-based mitochondrial fusion phenotype, imaging
[1] = mutant cells, measured here: mutant cell line IC50

Structure (SMILES): COc1ccc(CCn2nnnc2C(CC(C)C)N2CCN(c3ncccn3)CC2)cc1OC (stereo not drawn)
- IC50 (WT cells): > 25 µM (inactive)
- pIC50 [1]: < 4.60

Structure (SMILES): O=C1N(O)C2(C=CCCC2)/C(=N\O)C12CCCCC2 (stereo not drawn)
- IC50 (WT cells): > 25 µM (inactive)
- pIC50 [1]: < 4.60

Structure (SMILES): CCOc1ccc(Cc2c(Cl)nc(SC)nc2N(C)C)cc1
- pIC50 (WT cells): 4.93
- pIC50 [1]: < 4.60

Structure (SMILES): CN(CC(=O)O/N=C(\N)c1cccc([N+](=O)[O-])c1)S(=O)(=O)c1ccccc1
- IC50 (WT cells): > 25 µM (inactive)
- pIC50 [1]: < 4.60

Structure (SMILES): CCOC(=O)N1CCN(CC(O)COC2CC(C)CCC2C(C)C)CC1 (stereo not drawn)
- IC50 (WT cells): > 25 µM (inactive)
- pIC50 [1]: < 4.60

Structure (SMILES): CC(C)(C)[C@H]1C=C(C(=O)N2CCN(Cc3ccc4c(c3)OCO4)CC2)O[C@@H](OCc2ccc(CO)cc2)C1
- pIC50 (WT cells): 5.00
- pIC50 [1]: < 4.60

Structure (SMILES): O=C(OCc1nnc(-c2ccccc2)o1)C12CC3CC(CC(Br)(C3)C1)C2
- pIC50 (WT cells): 4.62
- pIC50 [1]: < 4.60

Structure (SMILES): CC(C)(C)C1CCc2c(sc(NC(=O)CSc3ncn[nH]3)c2C#N)C1 (stereo not drawn)
- pIC50 (WT cells): 4.80
- pIC50 [1]: < 4.60

Structure (SMILES): CCCc1cc(-c2nc(N)ncc2-c2ccc3c(c2)OCCCO3)c(O)cc1OC
- pIC50 (WT cells): 4.85
- pIC50 [1]: < 4.60

Structure (SMILES): CN(C)C(=O)CSc1nnc(CCCCCNC(=O)OC(C)(C)C)o1
- IC50 (WT cells): > 25 µM (inactive)
- pIC50 [1]: < 4.60

Structure (SMILES): OC1(c2cccc(C(F)(F)F)c2)CCN(c2ncnc3c2[nH]c2ccccc23)CC1
- pIC50 (WT cells): 4.75
- pIC50 [1]: < 4.60

Structure (SMILES): COc1ccc(NC(=O)c2oc3ccccc3c2NC(=O)COc2ccccc2OC)c(OC)c1
- IC50 (WT cells): > 25 µM (inactive)
- pIC50 [1]: < 4.60

Structure (SMILES): CC(C)(C)Nc1nc(SCc2ccccc2)nc(N2CCOCC2)n1
- pIC50 (WT cells): 4.76
- pIC50 [1]: < 4.60

Structure (SMILES): Cc1ccc(S(=O)(=O)c2nc(Nc3ccccc3)sc2Cl)cc1
- pIC50 (WT cells): 4.85
- pIC50 [1]: < 4.60

Structure (SMILES): CC(C)C(c1nnnn1C(C)(C)C)N1CCC(Cc2ccccc2)CC1 (stereo not drawn)
- pIC50 (WT cells): 4.92
- pIC50 [1]: < 4.60

Structure (SMILES): Cc1ccc(-c2ncccc2OC(=O)C23CC4CC(CC(C4)C2)C3)cc1
- pIC50 (WT cells): 4.73
- pIC50 [1]: < 4.60

Structure (SMILES): CCCn1nnc(NC(=O)c2ccc(-c3cccc(Cl)c3)o2)n1
- IC50 (WT cells): > 25 µM (inactive)
- pIC50 [1]: < 4.60

Structure (SMILES): COc1ccccc1NC1=C(Cl)C(=O)N(C2CCCCC2)C1=O
- pIC50 (WT cells): 4.62
- pIC50 [1]: < 4.60

Structure (SMILES): COc1ccc(CNC(=O)C2CC(=O)N(c3ccc(OCC(=O)N4C(C)CCCC4C)cc3)C2)cc1 (stereo not drawn)
- IC50 (WT cells): > 25 µM (inactive)
- pIC50 [1]: < 4.60

Structure (SMILES): Nc1ccc2nc(CN3CCOCC3)[nH]c2c1
- IC50 (WT cells): > 25 µM (inactive)
- pIC50 [1]: < 4.60

Structure (SMILES): COc1ccc(CCNS(=O)(=O)c2ccc(OC)cc2)cc1
- IC50 (WT cells): > 25 µM (inactive)
- pIC50 [1]: < 4.60

Structure (SMILES): Cc1ccccc1NC(=O)CNc1ccccc1N1CCCCC1
- IC50 (WT cells): > 25 µM (inactive)
- pIC50 [1]: < 4.60

Structure (SMILES): N=c1c2c(n(Cc3ccc(F)cc3)c3c1CCC3)CCC2
- pIC50 (WT cells): 4.95
- pIC50 [1]: < 4.60

Structure (SMILES): O=c1c2cn[nH]c2nc(SCc2c(F)cccc2F)n1-c1ccc(Cl)cc1
- IC50 (WT cells): > 25 µM (inactive)
- pIC50 [1]: < 4.60

Structure (SMILES): O=C(CCCCCn1c(=S)[nH]c2cc3c(cc2c1=O)OCO3)N1CCN(C(=O)c2ccco2)CC1
- IC50 (WT cells): > 25 µM (inactive)
- pIC50 [1]: < 4.60

Structure (SMILES): CC(C)c1ccc(OCC(O)Cn2cnc3ccccc32)cc1 (stereo not drawn)
- IC50 (WT cells): > 25 µM (inactive)
- pIC50 [1]: < 4.60

Structure (SMILES): Cc1ccc(Nc2nc(N)nc(CSc3nc4ccccc4s3)n2)cc1
- pIC50 (WT cells): 4.85
- pIC50 [1]: 4.77

Structure (SMILES): NC(=O)c1ccc(NC(=O)CCCN2C(=O)c3ccccc3C2=O)cc1
- IC50 (WT cells): > 25 µM (inactive)
- pIC50 [1]: < 4.60

Structure (SMILES): COc1ccccc1CN=Cc1[nH]c2ccc(Br)c(Cl)c2c1O
- IC50 (WT cells): > 25 µM (inactive)
- pIC50 [1]: < 4.60

Structure (SMILES): Cc1ccc2c(c1)c1c(n2CC(O)Cn2nc(C)c(Br)c2C)CCCC1 (stereo not drawn)
- pIC50 (WT cells): 4.91
- pIC50 [1]: 4.64

Structure (SMILES): Cc1ccc2nc(-c3ccccc3)c(CN3CCN(c4ccccc4F)CC3)n2c1
- pIC50 (WT cells): 4.81
- pIC50 [1]: < 4.60

Structure (SMILES): c1ccc(-c2nnc(CSc3nnc(-c4ccncc4)n3Cc3ccco3)o2)cc1
- IC50 (WT cells): > 25 µM (inactive)
- pIC50 [1]: < 4.60

Structure (SMILES): Cc1cc(C)nc(NC2=NCC(=O)N2c2ccc3c(c2)OCCO3)n1
- IC50 (WT cells): > 25 µM (inactive)
- pIC50 [1]: < 4.60

Structure (SMILES): Cc1ccc(/C=N/NC(=O)COc2ccccc2-c2ccccc2)cc1
- pIC50 (WT cells): 4.83
- pIC50 [1]: < 4.60

Structure (SMILES): S=C(Nc1ccccc1Oc1ccccc1)Nc1cccc(Cl)c1Cl
- pIC50 (WT cells): 4.90
- pIC50 [1]: 4.65

Structure (SMILES): COc1ccc(CCn2nnnc2C(C(C)C)N2CCN(c3ncccn3)CC2)cc1OC (stereo not drawn)
- IC50 (WT cells): > 25 µM (inactive)
- pIC50 [1]: < 4.60

Structure (SMILES): Cc1cccc(N(C)C(=S)Oc2ccc3ccccc3c2)c1
- pIC50 (WT cells): 5.06
- pIC50 [1]: < 4.60

Structure (SMILES): COc1ccc(C2c3c(ncn(Cc4ccco4)c3=N)Oc3ccc4ccccc4c32)cc1 (stereo not drawn)
- pIC50 (WT cells): 4.87
- pIC50 [1]: < 4.60

Structure (SMILES): Cc1cc(NC(=S)N(Cc2ccc(Br)cc2)Cc2ccc(C(=O)O)cc2)ccc1Cl
- pIC50 (WT cells): 4.79
- pIC50 [1]: < 4.60

Structure (SMILES): Oc1cccc(C(O)CNCc2ccc(OCc3ccc(Cl)cc3Cl)cc2)c1 (stereo not drawn)
- pIC50 (WT cells): 4.82
- pIC50 [1]: 4.76

Structure (SMILES): CCn1ccnc1CN1CCc2c([nH]c3ccccc23)C1C1CCCCC1 (stereo not drawn)
- pIC50 (WT cells): 4.76
- pIC50 [1]: < 4.60

Structure (SMILES): O=C1Nc2ccc(Cl)cc2C12Nc1ccccc1-c1nnc(SCc3ccccc3F)nc1O2 (stereo not drawn)
- IC50 (WT cells): > 25 µM (inactive)
- pIC50 [1]: < 4.60

Structure (SMILES): O=C(c1ccc(C(F)(F)F)cc1)N1CCC(=O)N(C(COCc2ccc(Cl)cc2)Cc2ccccc2)CC1 (stereo not drawn)
- pIC50 (WT cells): 4.72
- pIC50 [1]: < 4.60

Structure (SMILES): CCCN(Cc1ccccc1)C(=S)Nc1ccc(SC(F)F)cc1
- pIC50 (WT cells): 4.69
- pIC50 [1]: < 4.60

Structure (SMILES): CCC(=O)Nc1ccc(N2CCN(CC)CC2)c(Cl)c1
- IC50 (WT cells): > 25 µM (inactive)
- pIC50 [1]: < 4.60

Structure (SMILES): Cc1ccc2nc(NCCCNC(=O)c3cnccn3)c(C#N)cc2c1
- IC50 (WT cells): > 25 µM (inactive)
- pIC50 [1]: < 4.60

Structure (SMILES): COc1ccc(-c2nnc(SCc3cc(C)cc(C)c3)o2)cc1
- pIC50 (WT cells): 4.89
- pIC50 [1]: < 4.60

Structure (SMILES): Cc1ccc(-c2nnc(SCC(=O)N3CCOCC3)nc2-c2ccc(C)cc2)cc1
- IC50 (WT cells): > 25 µM (inactive)
- pIC50 [1]: < 4.60

Structure (SMILES): O=S(=O)(Nc1ccc(O)c(Sc2nc3ccccc3s2)c1)c1cccc2ccccc12
- pIC50 (WT cells): 4.97
- pIC50 [1]: < 4.60

Structure (SMILES): Cc1nc(-c2cccc(NS(=O)(=O)c3cccc4ccccc34)c2)cs1
- pIC50 (WT cells): 4.80
- pIC50 [1]: < 4.60

Structure (SMILES): CCOC(=O)c1sc(NC(=O)/C=C/c2cnn(C)c2C)c(C(=O)OC(C)C)c1C
- IC50 (WT cells): > 25 µM (inactive)
- pIC50 [1]: < 4.60

Structure (SMILES): c1ccc(-c2nc(N3CCCCC3)nc3ccccc23)cc1
- pIC50 (WT cells): 4.74
- pIC50 [1]: 4.71

Structure (SMILES): COc1ccccc1/C=C/C=N\N1CCN(Cc2ccccc2Cl)CC1
- pIC50 (WT cells): 4.68
- pIC50 [1]: < 4.60

Structure (SMILES): COC(=O)[C@H](Cc1ccccc1)NC(=O)O[C@H]1C(=O)c2ccc(OC)cc2O[C@@H]1c1ccc2c(c1)OCO2
- pIC50 (WT cells): 4.89
- pIC50 [1]: < 4.60

Structure (SMILES): CN(C)c1ccc(C(CNS(=O)(=O)c2ccc(F)c(F)c2)c2c[nH]c3ccccc23)cc1 (stereo not drawn)
- pIC50 (WT cells): 4.87
- pIC50 [1]: < 4.60

Structure (SMILES): COc1ccc(NC(=O)c2csc(Cc3ccc(Cl)cc3)n2)cc1
- pIC50 (WT cells): 4.80
- pIC50 [1]: 4.61

Structure (SMILES): Cc1ccc(S(=O)(=O)c2c(C)nn(C(C)(C)C)c2OC(=O)CC(C)C)cc1
- pIC50 (WT cells): 4.65
- pIC50 [1]: < 4.60

Structure (SMILES): CC(Oc1ccc(Cl)cc1Cl)C(=O)NCCCCc1ccccc1 (stereo not drawn)
- IC50 (WT cells): > 25 µM (inactive)
- pIC50 [1]: < 4.60

Structure (SMILES): CC(C)(C)c1ccc(OCC(=O)N2CCCCCC2)c(Br)c1
- IC50 (WT cells): > 25 µM (inactive)
- pIC50 [1]: < 4.60
